In patent US7999009B2, “Strontium salts of sulphonic acids, a process for their preparation and pharmaceutical compositions containing them” (Les Laboratoires Servier, priority 2006, dated 2011):

Columns and labels:
[1] = tested on: fragments of bovine cartilage; test: In vitro inhibition of bovine cartilage catabolism (cartilage fragments stimulated with TNFα and oncostatin M, 21 days); type: cell-based; conditions: for percentage inhibition of the degradation of the proteins in the cartilage: D21; for percentage inhibition of the degradation of the GAGs: D21, DMB technique
Description: The study was carried out on fragments of bovine cartilage in culture medium (96-well plate), the degradation of which is stimulated by adding TNFα and oncostatin M (Schaller, S., Henriksen, K., Hoegh-Andersen, P., Sondergaard, B. C., Sumer, E. U., Tanko, L. B., Qvist, P., Karsdal, M. A. In vitro, ex vivo, and in vivo methodological approaches for studying therapeutic targets of osteoporosis and degenerative joint diseases: how biomarkers can assist? Assay. Drug Dev. Technol. 3, 553-580 (2005).
(§1) The duration of the cultivation period is 21 days (culture medium changed every 2 days). A group not treated with TNFα and oncostatin M constitutes the control group. Five lots of stimulated cartilage fragments were treated with the compound of Example 1, each at a different dose: 0.01; 0.1; 1; 3 and 10 mM. 5 replications were carried out for each dose.
On D19, the concentration of CTX II (fragment of type II collagen resulting from the degradation of that collagen by metalloproteases) in the culture medium is measured using an ELISA technique. That parameter is expressed in ng/ml/mg of cartilage.
On D21, the following are measured in the cartilage remaining at the end of cultivation: • the quantity of proteins, using the kit marketed by Biorad. For the groups treated with the compound of Example 1, the results of this parameter are expressed as the percentage inhibition of the degradation of the proteins in the cartilage of the untreated control group; • and the quantity of glycosaminoglycans (GAGs), using the […] (DMB). That parameter, too, is expressed as a percentage inhibition of the degradation of the GAGs evaluated in the control group after culturing for 21 days. Results

[2] = tested on: fragments of bovine cartilage; test: Alamar blue toxicity test in the bovine cartilage culture; type: cell-based; conditions: 21 days of cultivation, whatever the dose (0.01-10 mM)
Description: as §1
The treatment is moreover well tolerated by the cells for the 21 days of cultivation (toxicity test employed: Alamar blue—negative whatever the dose).

O=S(=O)([O-])CCCS(=O)(=O)[O-].[Sr+2] [Example 1, Strontium 1,3-propanedisulphonate] was tested, and the IC50 ([1]; D19, ELISA, TNFα + oncostatin M stimulated cartilage, significant (p<0.001), dose-dependent, read-out: inhibition of the salting out of CTX II in the culture medium (IC50)) was 3.5 mM, the “percentage inhibition of the degradation of the proteins in the cartilage” value (from here on “percentage inhibition … in the cartilage”) ([1]; dose 1 mM) was 22% and the “percentage inhibition of the degradation of the GAGs” value (shortened to “percentage inhibition … of the GAGs”) ([1]; dose 1 mM) was 4%. The “percentage inhibition … in the cartilage” value ([1]; dose 3 mM) was 41%, the “percentage inhibition … of the GAGs” value ([1]; dose 3 mM) was 8% and the “percentage inhibition … of the GAGs” value ([1]; dose 10 mM, **p < 0.01) was 26%**. For the same compound, the “percentage inhibition … in the cartilage” value ([1]; dose 10 mM, *p < 0.05) was 55%* and the “toxicity test Alamar blue (tolerance by the cells)” value [2] was “negative”.
